Among the test systems are RPMI-8226 leukemia; A549 NSCLC; SF-268 CNS; NCI-H23 lung; BT-549 breast; HOP-92 NSCLC; SNB-75 CNS; OVCAR-8 ovarian; UACC-62 melanoma; TK-10 renal.
Assay in all cases: DTP human tumour cell line panel, 48 h

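Cells were grown in 96-well plates and exposed to each compound for 48 hours at five concentrations; endpoints were interpolated linearly between bracketing concentrations, or set to the highest concentration if not reached. At the GI50, growth is halved. TGI denotes the concentration required for complete inhibition of growth.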

The GI50 is the concentration giving 50% growth inhibition. The term TGI denotes the concentration at which net growth stops. A lower TGI goes with more potent growth arrest. Take `COc1ccc(CCN2CCC(CN(C)Cc3cnn(-c4ccccc4)c3)CC2)cc1`: the GI50 with RPMI-8226 leukemia was 13.8 µM; with A549 NSCLC, 19.4 µM; in the experiment on SF-268 CNS, 14.2 µM; with NCI-H23 lung, 29.8 µM; in the experiment on BT-549 breast, 14.5 µM; in the experiment on HOP-92 NSCLC, 4.61 µM. Also, the GI50 was 8.83 µM in the experiment on SNB-75 CNS, 16.5 µM in the experiment with OVCAR-8 ovarian, 2.63 µM in the experiment with UACC-62 melanoma and 16.3 µM in the experiment with TK-10 renal. The TGI in the experiment on RPMI-8226 leukemia was 42.1 µM; in the experiment with A549 NSCLC, 48.9 µM; in the experiment on SF-268 CNS, 34.7 µM; in the experiment on NCI-H23 lung, greater than 100 µM; with BT-549 breast, 36.2 µM; with HOP-92 NSCLC, 19.3 µM. Moreover, the TGI with SNB-75 CNS came to 21.2 µM; in the experiment on OVCAR-8 ovarian it was 37.5 µM; in the experiment on UACC-62 melanoma, 7.36 µM; in the experiment with TK-10 renal, 32.6 µM.
In the case of `O=C1N(Cc2ccccc2Cl)c2ccccc2C12NN=C(c1cccc(Cl)c1)S2` (stereo not given), the GI50 in the experiment with RPMI-8226 leukemia was 2.36 µM; in the experiment on A549 NSCLC, 1.86 µM; with SF-268 CNS, 1.59 µM; with NCI-H23 lung, 1.63 µM; in the experiment with BT-549 breast it was 1.83 µM; in the experiment with HOP-92 NSCLC, 1.74 µM. Moreover, the GI50 is 1.47 µM with SNB-75 CNS, 1.96 µM in the experiment with OVCAR-8 ovarian, 1.76 µM in the experiment on UACC-62 melanoma and 1.77 µM in the experiment on TK-10 renal. The TGI came to 6.04 µM with RPMI-8226 leukemia; 3.41 µM with A549 NSCLC; 3.26 µM in the experiment with SF-268 CNS; 3.67 µM in the experiment with NCI-H23 lung; 3.44 µM in the experiment on BT-549 breast; 3.17 µM in the experiment with HOP-92 NSCLC. Further, the TGI turned out to be 2.84 µM in the experiment on SNB-75 CNS, 4.41 µM with OVCAR-8 ovarian, 3.52 µM in the experiment with UACC-62 melanoma and 3.15 µM with TK-10 renal.
Consider `C/C(=N\NC(=S)N1CCCCCC1)c1cccc2cccnc12`, for which the TGI with RPMI-8226 leukemia was 15.3 µM; in the experiment with A549 NSCLC, greater than 100 µM; in the experiment with SF-268 CNS, greater than 100 µM; in the experiment on NCI-H23 lung, 15.5 µM; in the experiment on BT-549 breast it was greater than 92.4 µM; in the experiment with HOP-92 NSCLC it was greater than 100 µM. Moreover, the TGI with SNB-75 CNS was greater than 91.6 µM; in the experiment with OVCAR-8 ovarian, greater than 100 µM; with UACC-62 melanoma, 6.53 µM; in the experiment on TK-10 renal, greater than 100 µM.
Consider `COc1cc(C)c2sc3ccccc3c(=O)c2c1NCCN(C)C`, for which the GI50 is 2.85 µM in the experiment with RPMI-8226 leukemia; 4.05 µM with A549 NSCLC; 8.57 µM with SF-268 CNS; 13.1 µM in the experiment with NCI-H23 lung; 12.5 µM with BT-549 breast; 1.51 µM with HOP-92 NSCLC. For the same compound, the GI50 in the experiment on SNB-75 CNS was 2.21 µM; in the experiment on OVCAR-8 ovarian, 5.44 µM; in the experiment with UACC-62 melanoma, 1.87 µM; with TK-10 renal, 8.83 µM. For the same compound, the TGI in the experiment on RPMI-8226 leukemia is 8.87 µM; in the experiment with A549 NSCLC, 15.7 µM; with SF-268 CNS, 22.3 µM; with NCI-H23 lung, 28 µM; in the experiment with BT-549 breast, 25.4 µM; with HOP-92 NSCLC, 8.64 µM. The TGI in the experiment on SNB-75 CNS worked out at 13.2 µM; in the experiment with OVCAR-8 ovarian, 19.1 µM; in the experiment with UACC-62 melanoma it was 3.8 µM; in the experiment with TK-10 renal it was 21.2 µM.
Turning to `CN1CCN(c2nc(-c3csc(-c4cccs4)n3)cc3ccccc23)CC1`, the GI50 with RPMI-8226 leukemia is 2.09 µM; in the experiment with A549 NSCLC it was 1.76 µM; in the experiment with SF-268 CNS it was 1.82 µM; in the experiment on NCI-H23 lung, 1.93 µM; with BT-549 breast, 1.82 µM; with HOP-92 NSCLC, 1.44 µM. Further, the GI50 is 1.36 µM with SNB-75 CNS, 1.89 µM in the experiment with OVCAR-8 ovarian, 1.69 µM in the experiment with UACC-62 melanoma and 1.98 µM with TK-10 renal. The concentration for total growth inhibition (TGI) was found to be 4.98 µM in the experiment on RPMI-8226 leukemia; 3.55 µM in the experiment on A549 NSCLC; 3.6 µM in the experiment with SF-268 CNS; 3.92 µM in the experiment with NCI-H23 lung; 3.94 µM with BT-549 breast; 3.75 µM in the experiment on HOP-92 NSCLC. For the same compound, the TGI in the experiment on SNB-75 CNS is 2.91 µM; in the experiment on OVCAR-8 ovarian it was 3.97 µM; with UACC-62 melanoma, 3.15 µM; in the experiment with TK-10 renal, 3.65 µM.
Take `CC(C)(C)OC(=O)NCc1cccc(N=C=S)c1`: the GI50 is 17.2 µM with RPMI-8226 leukemia; 28 µM in the experiment on A549 NSCLC; 21 µM in the experiment on SF-268 CNS; 18.5 µM in the experiment on NCI-H23 lung; 19.2 µM in the experiment on BT-549 breast; 14.6 µM in the experiment on HOP-92 NSCLC. The GI50 is 14.1 µM in the experiment with SNB-75 CNS, 29.6 µM with OVCAR-8 ovarian, 14.4 µM with UACC-62 melanoma and 25.8 µM with TK-10 renal. The TGI in the experiment with RPMI-8226 leukemia turned out to be 56.7 µM; in the experiment on A549 NSCLC, 72.1 µM; in the experiment with SF-268 CNS it was 64.9 µM; in the experiment with NCI-H23 lung, 47.6 µM; with BT-549 breast, 44.2 µM; in the experiment with HOP-92 NSCLC it was 62.2 µM. The TGI was greater than 59.6 µM with SNB-75 CNS, greater than 92.7 µM in the experiment on OVCAR-8 ovarian, 30.6 µM in the experiment on UACC-62 melanoma and 70.8 µM in the experiment on TK-10 renal.
For `COc1ccc(-c2c3c(nc4n[nH]c(-c5ccc(Cl)cc5)c24)-c2ccccc2C(=O)C3=O)cc1`, the GI50 is 1.72 µM with RPMI-8226 leukemia; 1.83 µM in the experiment on A549 NSCLC; 1.4 µM in the experiment on SF-268 CNS; 1.64 µM with NCI-H23 lung; 1.41 µM in the experiment on BT-549 breast; 1.18 µM with HOP-92 NSCLC. The GI50 was 1.19 µM in the experiment with SNB-75 CNS, 1.59 µM in the experiment with OVCAR-8 ovarian, 1.59 µM in the experiment on UACC-62 melanoma and 1.8 µM in the experiment on TK-10 renal. Further, the TGI in the experiment on RPMI-8226 leukemia was found to be 7.15 µM; in the experiment with A549 NSCLC, 3.54 µM; with SF-268 CNS, 2.99 µM; with NCI-H23 lung, 4.74 µM; in the experiment with BT-549 breast, 2.89 µM; in the experiment on HOP-92 NSCLC, 3.17 µM. Moreover, the TGI was 2.76 µM in the experiment on SNB-75 CNS, 3.44 µM in the experiment with OVCAR-8 ovarian, 3.85 µM in the experiment with UACC-62 melanoma and 3.32 µM in the experiment on TK-10 renal.

The record behind these values is PubChem BioAssay (NCI).
